# Experimental data as given in patent US5047533A, “Acyclic purine phosphonate nucleotide analogs” (SRI International, priority 1990, dated 1991).
# What was measured:
# [1] = tested on: HSV-1TK+; assay: In vivo guinea pig HSV-1TK+ lesion test, topical solution; details: guinea pigs; for TK+ (average number of lesions): five days after treatment
# Procedure: Compound 2 also was tested in vivo in guinea pigs as an agent against HSV-1TK^+. The animals were inoculated with the virus; 18 hours later Compound 2 at two concentrations (0.4% and 1-2% (saturated) solution in water) was administered, and five days later blister diameters at the point of inoculation were measured. A 5% solution of acyclovir or a 1.4% solution of poly(vinylalcohol) was used as control. Satellite lesions were measured, as well.
# [2] = tested on: cells; assay: Cytotoxicity (maximum tolerated dose), control tests in 96-well microplates; type: cell-based; details: overall, Table 5
# Source text: (§1) ^b Maximum tolerated dose: That dose causing approximately 50%
# (§2) cytotoxic effects in cells, determined by the microscopic examination of
# (§3) cells for sloughing, shape alteration, and granularity in separately run
# (§4) control tests in 96well microplates.
# (§5) The data on acyclovir were gathered from tests run in MRC-5 cells grown under agarose overlay, with plaques read 7 days after virus exposure.
# [3] = as above; type: cell-based; details: Table 5; microscopic examination, separately run control tests; read-out: Approx. MTD (dose causing approximately 50% cytotoxic effects in cells)
# Source text: as §1, §2, §3, §4, §5
# [4] = 1-2% (saturated) solution in water
smiles,measurement,setting,value
"CCOP(=O)(O)CCCOCn1cnc2c(=O)[nH]c(N)nc21 [Compound 2, 9(3'-ethylphosphono-1'-propyloxymethyl)guanine]",Satellite lesions,[1]; 0.4% solution in water,11
same,TK+ (average number of lesions),[1]; 0.4% solution in water,2.1
same,Satellite lesions,[1]; [4],6
same,TK+ (average number of lesions),[1]; [4],0.9
same,activity against HSV TK+ virus in vivo,[1]; at least in saturated solution,has activity
same,cytotoxicity relative to acyclovir,[2],approximately the same
same,CC50,[3],~1000 µg/mL
